# Results as given in US20080221074A1, “Drug Screen and Treatment Method” (priority 2006, published 2008).
# “Also recorded” adds a separate entry of the source.
# What was measured:
# [1] = tested on: glucose intolerance in DIO mice; assay: diet induced obesity (DIO) mouse hyperglycemia treatment; format: in vivo; settings: 20, 40 or 80 mg/kg twice a day up to 28 days
# From the text: Diet induced obesity (DIO) mouse hyperglycemia treatment. The effect of a drug to enhance peripheral sensitivity to insulin can be studied in a mouse model in which a state of insulin resistance is attained by feeding the animals a fat-enriched diet (60% of total caloric intake) for at least 6 weeks. This model has been described, e.g., J. N. Thupari et al., Proc. Natl. Acad. Sci. USA, 99(14):9498-9502, 2002, H. Xu et al., J. Clin. Invest., 112:1821-1830, 2003, H. Takahashi et al., J. Biol. Chem., 278(47):46654-46660, 2003.
# For these studies, animals of approximately […] of age were divided into groups of 10 animals each and then treated with a vehicle control (no drug) or 17α-ethynylandrost-5-ene-3β,7β,17β-triol by oral gavage. The 17α-ethynylandrost-5-ene-3β,7β,17β-triol was administered at 20 mg/kg, 40 mg/kg or 80 mg/kg twice a day for up to 28 days. At day 14 and day 28 during the dosing period an OGTT was performed.
# [2] = tested on: blood glucose in db/db mice; assay: glucose lowering in diabetic db/db mice; format: in vivo, db/db C57BL/Ks mice
# Experimental: Glucose lowering and amelioration of insulin resistance. Glucose lowering effects and amelioration of insulin resistance was assessed in the diabetic db/db mouse model of human diabetes and insulin resistance. In these studies, db/db C57BL/Ks mice of approximately 8 to 10 weeks of age were divided into groups of 10 each and then treated with a vehicle control (no drug) or 17α-ethynylandrost-5-ene-3β,7β,17β-triol by oral gavage. The compound was administered twice a day at 20 mg/kg/day (10 mg/kg dose administered twice per day), 40 mg/kg/day (20 mg/kg dose administered twice per day) or 80 mg/kg/day (40 mg/kg dose administered twice per day) for up to 28 days. Blood glucose levels were monitored twice a week during the dosing period, using a minute amount of blood (nick tail bleeds) to measure the concentration of glucose by glucometer strips. At specific times during the dosing period (day 14 and day 28), an oral glucose tolerance test (OGTT) was also performed by administering a standard oral dose of 1 g/kg glucose (approximately 40 mg in a […]) and then the fluctuation of blood glucose levels was monitored quickly thereafter after at 15, 30, 60 and 120 minutes after the glucose dose. […] Blood glucose approached 380 mg/dL in the vehicle control group and was <230 mg/dL after at least 10 days of dosing in the drug treated group.
# A treatment protocol similar to that described in example 15 was performed with db/db mice that were younger than the animals described in example 15. The animals (n=8 to 10 per group) were treated with 17α-ethynylandrost-5-ene-3β,7β,17β-triol or vehicle by oral gavage twice per day at 40 mg/kg/day (20 mg/kg dose given twice per day) and 80 mg/kg/day (40 mg/kg dose given twice per day). At the start of dosing, the animals were 6 weeks of age, before the onset of elevated glucose levels or hyperglycemia. Dosing with vehicle or drug was maintained for 32 days to determine the effect of the treatments on the onset and rate of progression of hyperglycemia in the animals. In the control group, the onset of hyperglycemia was observed after 25 days of dosing and it continued to worsen, i.e., blood glucose levels rose from normal to frank hyperglycemia, through the end of the 32 day dosing period.
# [3] = tested on: popliteal lymph node cells; assay: reporter antigen popliteal lymph node (PLN) assay; format: in vivo, BALB/C mice
# From the text: Analysis of immune suppression. Glucocorticoid steroids such as dexamethasone or hydrocortisone are typically immune suppressive and have significant toxicities associated with their use. Immune suppression was examined in a reporter antigen popliteal lymph node assay in mice essentially as previously described (C. Goebel et al., Inflamm. Res., 45(Suppl. 2):S85-S90, 1996; R. Pieters et al., Environmental Health Perspectives 107(Suppl. 5):673-677, 1999). […] In this protocol, the vehicle was 0.1% carboxymethylcellulose, 0.9% saline, 2% tween 80 and 0.05% phenol, which contained 17α-ethynylandrost-5-ene-3β,7β,17β-triol in suspension in drug treated animals. Assessment of activity included (1) measuring suppression of numbers of total lymphocytes, antigen specific IgM, IgG1 and IgG2a antibody secreting cells (ASC) (ELISPOT assay) in popliteal lymph node cells; (2) analysis of cell surface marker (CD4, CD8, CD19, F480, CD80, CD86) expression by flow cytometry of living cells in suspension; and (3) IL-4, TNFα and IFNγ production by lymphocytes in vitro (ELISA).
# Groups (n=5 per group) of specific pathogen free BALB/C mice were used. The Positive control group was treated with vehicle (oral gavage) and 5 μg/day dexamethasone by subcutaneous injection to induce immune suppression. Vehicle control animals (negative control) were treated with vehicle alone (oral gavage). One group of animals was treated with 17α-ethynylandrost-5-ene-3β,7β,17β-triol at 0.1 mg/day by oral gavage. Another group was treated with 1 mg/day of 17α-ethynylandrost-5-ene-3β,7β,17β-triol was administered to the animals oral gavage. The results were analyzed by two-tailed Student's t-test with equal variance. The animals were injected in the right hind footpad with 50 μL of freshly prepared sensitizing dose of TNP-OVA. […] Single cell suspensions were prepared, resuspended in 1 mL PBS-BSA (1%) and counted. Cell numbers, IL-4, IL-5 and IFNγ were measured.
# [4] = tested on: human MG-63 osteosarcoma cell line; assay: reversal of dexamethasone effects in MG-63 osteoblasts; format: cell-based; settings: 30 nM dexamethasone; compound concentration stated with each value (17α-ethynyl triol: 1 nM)
structure (smiles),measurement,setting,value
"C#C[C@]1(O)CC[C@H]2[C@@H]3[C@@H](O)C=C4C[C@@H](O)CC[C@]4(C)[C@H]3CC[C@@]21C [17α-ethynylandrost-5-ene-3β,7β,17β-triol]",glucose intolerance (OGTT glycemic excursion) vs vehicle,[1],notably reduced glucose intolerance
same,OGTT peak glycemic excursion,"[2]; 80 mg/kg b.i.d. for 28 days, 30-min post-oral glucose",< 200 mg/dL
same,onset of hyperglycemia,"[2]; 6 week old db/db mice, 32 day dosing",did not rise above normal levels; also recorded: completely blocked progression
same,decrease in hyperglycemic blood glucose levels,"[2]; 8 to 10 week old db/db mice, oral gavage twice a day",approximately 40%
same,basal blood glucose,"[2]; 8 week old male db/db mice, 40 mg/kg dose group, twice a day",markedly suppressed
same,blood glucose,[2]; after at least 10 days of dosing,< 230 mg/dL
same,glucose intolerance in OGTT vs vehicle,[2]; treated db/db animals,significant amelioration of glucose intolerance
same,average number of lymphocytes in PLNs,[3]; 0.1 mg/day oral gavage,11.1×10^6 per lymph node
same,"IFNγ, IL-4 and IL-5 levels compared to vehicle control","[3]; compound 1.0 and 0.1 mg/day, dexamethasone 5 μg/day",increased
same,reversal of the decrease in osteoprotegerin synthesis,[4],completely reversed the decrease in osteoprotegerin synthesis
